Experiments:
[1] = tested on: Plasmodium falciparum 3D7; assay: Growth inhibition of Plasmodium falciparum 3D7 in RPMI 1640 culture medium, single drugs; type: cell-based; conditions: for Growth inhibition rate: highest growth inhibition, RPMI 1640, 24 h
Experimental: Plates with a capacity of 4 ml or T25 culture flasks were employed for the cultivation of parasites. CCM culture medium and blood (to sustain a hematocrit of 10% within the culture medium for the proliferation and replication of the parasite) were supplemented into the dishes. […] Parasites were multiplied in a CCM medium containing 10% hematocrit with O + human erythrocyte and albumax (0.5%) serving as a growth factor. The culture plates were incubated at 37 °c in a candle jar, with the fresh medium being replenished every 48 h. A thin blood smear was prepared from the sediment collected from each plate, followed by the quantification of parasites on 10,000 red blood cells.
To investigate the effect of drugs on the culture medium, two stages were conducted. The effect of the drug was performed when 80% of the parasites were in the ring stage and the parasitemia was 6%. […] In the first step, the drugs were treated separately and their IC50 was measured. For plant extract, dilutions of 100, 200, 400 and 800 µg/mL (dry extract) of culture medium were done in 12 wells of a 96-well plate (in triplicate).
For polyethylene glycol, dilutions of 10, 100, 1000 and 10000 µg/mL of culture medium were done in 12 wells of a 96-well plate (in triplicate). For the nanoparticle produced by the PEGylated green synthesis method (PEG-HNPs) dilutions of 50, 100, 200, and 400 µg/mL culture medium were done in 12 wells of 96-well plates (in triplicate). In the second step, the effect of the IC50 combination of drugs with each other was investigated by the Fix ratio method on the culture medium. In this way, the percentage ratio of 0, 10, 30, 50, 70, 90, and 100 of one drug was combined with another drug and it was given an effect on the culture medium, and their synergistic and antagonistic effect was investigated by affecting the amount of parasitemia. Negative control consisted of 15 μL of freshly washed RBC plus 85 μL of CCM. […] Statistical analysis was done using GraphPad prism9 software and the results were analyzed with one-way ANOVA. […]

[2] = tested on: red blood cells; assay: Hemolytic test; type: cell-based, human; conditions: 3 h incubation
Experimental: To conduct the hemolytic test on the hydroalcoholic extract of […], nicotinamide, and green-synthesized nanoparticles, 5 mL of fresh whole blood with heparin anticoagulant was obtained from a healthy volunteer. After centrifugation and washing with PBS, 1% blood suspension was prepared. In each well of three microplates, 100 µL of the prepared blood was added. Subsequently, 100 µL of the hydroalcoholic extract, nicotinamide, and green-synthesized nanoparticles with concentrations of 0.1, 1, 10, 50, 100 and 200 µg/mL, were added into the second to seventh wells of all three microplates, respectively. The first wells served as negative controls, containing an equal volume of PBS, while the eighth wells were positive controls, containing 100 µL of Triton X-100. After 3 h of incubation and centrifugation, the optical absorbance of the supernatant was measured at a wavelength of 540 nm. The percentage of drug-induced hemolysis was calculated using the following formula [28]: Percenthemolysis%=ODtest-ODnegativecontrol/ODpositivecontrol-ODnegativecontrol×100.
Investigating the hemolytic effect of Eriobotrya japonica hydroalcoholic extract (herbal extract), nicotinamide (NAM), and PEGylated green synthesized iron oxide nanoparticles (HNPs) on red blood cells at concentrations of 0.1, 1, 10, 50, 100 and 200 µg/mL were evaluated (Table 3). The optical absorbance of PBS was measured as negative control 0.01 and the optical absorbance of Triton X-100 was measured as positive control 1.00 (Fig. 5).

CCN(CC)CCCC(C)Nc1ccnc2cc(Cl)ccc12 (stereo not drawn) [CQ, chloroquine diphosphate]
inhibition at 8 µg/mL ([1]; Plasmodium falciparum, 3D7, 24 h, read-out: Growth inhibition rate): 95%

NC(=O)c1cccnc1 [NAM, nicotinamide]
Percentage of drug hemolysis ([2]; drug concentration 0.1 µg/mL): 1%
Percentage of drug hemolysis ([2]; drug concentration 1 µg/mL): 2%
Percentage of drug hemolysis ([2]; drug concentration 10 µg/mL): 4%
Percentage of drug hemolysis ([2]; drug concentration 50 µg/mL): 6%
Percentage of drug hemolysis ([2]; drug concentration 100 µg/mL): 8%
Percentage of drug hemolysis ([2]; drug concentration 200 µg/mL): 9%
Growth inhibition rate ([1]; concentration 3000 µg/ml): 94%

polyethylene glycol 600 [PEG]
Growth inhibition rate ([1]; concentration 10000 µg/ml): 71%

Reference: publication PMC12036197, “Green synthesis of PEGylated iron oxide nanoparticles of Eriobotrya japonica leaves extract in combination with B3, against Plasmodium falciparum 3D7 strain” (Tropical Medicine and Health, 2025)
